Entries after “also recorded” stand apart in the source; their conditions may differ.
Tests used:
[1] = test system: neutral lipids in zebrafish larvae; test: zebrafish Nile red fat metabolism assay (lipid reducing activity); assay type: in vivo, Zebrafish (Danio rerio); settings: for fluorescence intensity of Nile red: all tested concentrations (156 ng/mL to 10 μg/mL); for lipid reducing activity / Nile red staining / IC50: zebrafish larvae, exposure for 48 h; for IC50: Nile red
Protocol: FIG. 1.A: Representative images of the zebrafish Nile red fat metabolism assay. Nile red fluorescence signal indicates neutral lipids around the yolk sac and stomach/intestine. […] A solvent control (0.1% dimethyl sulfoxide, DMSO) and positive control group (50 μM resveratrol, REV) was included.
FIG. 1.B: Quantification of lipid-reducing activity in the zebrafish Nile Red fat metabolism assay after exposure for 48 h. Values are expressed as mean fluorescence intensity (MFI) relative to the DMSO group and are derived from 6 to 8 individual larvae per treatment group. The data are represented as box-whisker plots (5 to 95 percentiles). Asterisks highlight significant differences compared to the DMSO group (****p<0.0001; ***p<0.001; **p<0.01; *p<0.05).
Zebrafish (Danio rerio) has become an attractive model organism for biomedical research. In the study of complex metabolic disorders like obesity, the use of more complex in vivo model systems as small whole animal models can bring significant advantages. For drug discovery, zebrafish assays can be used complementary to rodent assays, with easier handling, high predictive validity and cost-efficiency while compatible with high-throughput screening. […] The zebrafish Nile red fat metabolism assay analyses the capacity of compounds to reduce neutral lipids in zebrafish larvae in vivo.
(§1) 13^2(S)-hydroxy-pheophytin a (hpa) is a known compound, and belongs to the photosystem II complex of the chloroplast. The second is a novel compound, 13^2(S)-hydroxy-pheofarnesin a (hfa), which is structurally related to hpa.
In an embodiment, chlorophyll a and chlorophyll b were tested for lipid reducing activity on the zebrafish Nile red fat metabolism assay.

[2] = test system: differentiated 3T3-L1 spheroids; test: viability (calcein AM) in differentiated 3T3-L1 spheroids; assay type: cell-based, murine; settings: for reduction of viability of spheroids: not significant; for toxicity by calcein AM staining: 3T3L1 spheroids
Protocol: (§2) FIG. 2: Evaluation of lipid content (Nile red) and viability (calcein AM) in differentiated 3T3-L1 spheroids after exposure to compound 1 (hpa) and compound 2 (hfa) over 48 h. […] Statistical difference to the solvent control were analysed by One-Way ANOVA, followed by a Dunnett's multiple comparison post-test (***p-value<0.001, **p-value <0.01, *p-value <0.05). Quantification of free glycerol (lipolysis) on the medium where 3T3-L1 organoids were exposed to compound 1 (hpa) and compound 2 (hfa) over 48 h. […] Kolmogorov-Smirnov test was used to test normality of the data, followed by a Dunnett's multiple comparison post-test (***p-value <0.001, **p-value <0.01, *p-value <0.05).
(§3) In an embodiment, the bioactivity of hpa and hfa was confirmed in a further assay, using the murine pre-adipocyte cell line 3T3L1. […] In an embodiment, the activity in differentiated 3T3L1 spheroids was confirmed and analysis of lipolysis performed.

[3] = test system: zebrafish larvae; test: general toxicity on zebrafish larvae (death, malformations); assay type: in vivo, Zebrafish (Danio rerio); settings: same concentration ranges as lipid reducing activity
Text: as §1

[4] = test system: differentiated 3T3-L1 spheroids; test: lipolysis: free glycerol in the medium of 3T3-L1 spheroids; assay type: cell-based, murine; settings: 3T3-L1 spheroids exposed over 48 h
Protocol: as §2, §3

[5] = test system: cancer cells; settings: Cheng et al., 2001; cited from earlier work
[6] = test system: differentiated 3T3-L1 spheroids; test: lipid content (Nile red) in differentiated 3T3-L1 spheroids; assay type: cell-based, murine; settings: for lipid accumulation: 48 h exposure, spheroids after 7 d differentiation; for lipid content of the spheroids: 3T3L1 cells grown and differentiated as spheroids
Protocol: as §2, §3

| Molecule | fluorescence intensity of Nile red [1] | lipid reducing activity / Nile red staining [1] | IC50 [1] [µM] | reduction of viability of spheroids ([2]; 15 μg/mL, 48 h) [%] | reduction of viability of spheroids ([2]; 30 μg/mL, 48 h) [%] | toxicity by calcein AM staining [2] | general toxicity (death, malformations) [3] | lipolytic activity / free glycerol content in the medium [4] | lipolytic activity / free glycerol content in the medium ([4]; listed as compound 1) | cytotoxicity on cancer cells [5] [µg/mL] | lipid accumulation ([6]; 7.5 μg/mL) | lipid accumulation ([6]; 15 μg/mL) | lipid accumulation ([6]; 30 μg/mL) | lipid content of the spheroids [6] | reduction in viability of spheroids ([2]; any concentration, 48 h) | lipolytic activity / free glycerol content in the medium ([4]; listed as compound 2) |
| --- | --- | --- | --- | --- | --- | --- | --- | --- | --- | --- | --- | --- | --- | --- | --- | --- |
| C=Cc1c(C)c2cc3nc(c4c5[n-]c(cc6nc(cc1[n-]2)C(C)=C6CC)c(C)c5C(=O)[C@@H]4C(=O)OC)[C@@H](CCC(=O)OC/C=C(\C)CCC[C@H](C)CCC[C@H](C)CCCC(C)C)[C@@H]3C.[Mg+2] [chlorophyll a] | did not reduce the fluorescence intensity | not present; also recorded: did not demonstrate any lipid reducing activity | – | – | – | – | – | – | – | – | – | – | – | – | – | – |
| C=Cc1c(C)c2cc3nc(c4c5[n-]c(cc6nc(cc1[n-]2)C(C=O)=C6CC)c(C)c5C(=O)[C@@H]4C(=O)OC)[C@@H](CCC(=O)OC/C=C(\C)CCC[C@H](C)CCC[C@H](C)CCCC(C)C)[C@@H]3C.[Mg+2] [chlorophyll b] | did not reduce the fluorescence intensity | not present; also recorded: did not demonstrate any lipid reducing activity | – | – | – | – | – | – | – | – | – | – | – | – | – | – |
| 13^2-(S)-hydroxy-pheophytin a [hpa] | – | show a decrease in the Nile red staining | 8.9 ± 0.4 | 20 | 20 | No toxicity was observed | No general toxicity was observed | did not alter lipolytic activities | No significant alterations | 8.8 to 22 | significant reduction of lipid accumulation | significant reduction of lipid accumulation | significant reduction of lipid accumulation | reduced significantly the lipid content | – | – |
| 13^2-(S)-hydroxy-pheofarnesin a [hfa] | – | show a decrease in the Nile red staining | 15.5 ± 1.3 | – | – | No toxicity was observed | No general toxicity was observed | did not alter lipolytic activities | – | – | – | – | significant reduction of lipid accumulation | reduced significantly the lipid content | did not cause any reduction in viability | No significant alterations |

Source: patent US20220135580A1, “HYDROXYPH[…], METHODS AND USES THEREOF” (priority 2019, published 2022)
